Results: patent US9078805B2, “Method for producing a drug delivery system on the basis of polyelectrolyte complexes” (LEIBNIZ-INSTITUT FUER POLYMER-FORSCHUNG DRESDEN E.V., priority 2010, dated 2015)

Assay: Release of the bisphosphonate and stability of the PEC carrier layer on a germanium model substrate, measured via spectroscopic methods
Assay type: physicochemical
Conditions: after 1 minute; layer applied and dried on the same germanium model substrate
Experimental: 50 microliter of this drug-loaded PEC dispersion was brushed onto an inorganic planar model substrate of germanium and dried in the drying oven at 50° C. The measurement of the release of the bisphosphonate and the stability of the PEC carrier layer was carried out via spectroscopic methods. After 24 hours a relative reduction of the bisphosphonate content of the PEC/drug layer of approximately 50% resulted. […] For a layer of the pure bisphosphonate applied and dried on the same model substrate as in the case of PEC/drug, after 1 minute an immediate detachment and thus a relative reduction of the bisphosphonate content of approximately 100% resulted.

relative reduction of the bisphosphonate content (immediate detachment): approximately 100%
SMILES: NCCC(O)(P(=O)(O)O)P(=O)(O)O [pure bisphosphonate, pamidronate]
